# Measurements as given in patent US8952025B2, “Multifunctional radical quenchers and their uses” (Arizona Board of Regents, A Body Corporate of the State of …, priority 2010, dated 2015).
# “Also recorded” adds a separate entry of the source.
# Experiments:
# CEM cells [1] = experiment: Reactive oxygen species (ROS) assay, DCFH-DA, DEM-treated cells; type: cell-based, human; details: for suppression of ROS (DCFH-DA): 0.25 μM for 15 hours, DEM 40 min, CCRF-CEM cells; for protection against ROS production (DCF fluorescence): 5 μM, pretreatment 4 or 24 h
# Excerpt: Cellular ROS production can be monitored using 2′,7′-dichlorodihydrofluorescein diacetate (DCFH-DA) (LeBel et al. (1992) Chem. Res. Toxicol. 5, 227-231) (Molecular Probes, Eugene, Oreg., USA), a membrane permeable and oxidant-sensitive fluorescent dye. DCFH-DA is a non-fluorescent derivative of fluorescein that emits fluorescence after being oxidized by hydrogen peroxide and other ROS. The emitted fluorescence is directly proportional to the concentration of hydrogen peroxide. DCFH-DA is nonionic and nonpolar and is easily taken up by cells. Once inside the cell, DCFH-DA is hydrolyzed by cellular esterases to non-fluorescent DCFH which traps the dye in the cell. In the presence of ROS including hydrogen peroxide, DCFH is oxidized to the highly fluorescent compound dichlorofluorescein (DCF). The intracellular DCF fluorescence is used as an index of cellular ROS production.
# Cellular oxidative stress was induced by pharmacological depletion of glutathione (GSH) using the chemical diethylmaleate (DEM). ROS production was assessed by monitoring DCF fluorescence. Leukemic CEM cells (ATCC®, catalogue number CRL-2264) were cultured in RPMI (GIBCO, Grand island, N.Y., USA) with 10% FCS, 2 mM glutamine (HyClone, South Logan, Utah, USA) and 1% penicillin-streptomycin mix antibiotics (Cellgro, Manassan, Va., USA) supplements. Cells were maintained in the log phase at a concentration of between 1×10^5 and 1×10^6 cells/mL. CEM cells (1×10^6 cell/mL) were plated (1 mL) in twelve well plate and treated with the invention compounds (final concentration 1 and 5 μM), and incubated for two hours at 37° C., 5% CO2. The compounds tested were prepared by first making stock solutions (2.5 mM) in dimethylsulfoxide (DMSO). Cells were treated with 5 mM DEM for 30 minutes and collected by centrifugation at 300×g for 3 min and then washed twice with Hanks' Balanced Salt Solution (HSSB) buffer (Sigma, St. Louis, Mo. USA). Cells were resuspended in HSSB buffer+10 mM glucose and incubated at 37° C. in the dark for 20 min with 10 μM DCFH-DA. Cells were collected by centrifugation at 300×g for 3 min and then washed twice with HSSB buffer. The samples were analyzed immediately by flow cytometry (Becton-Dickinson FACS Caliber), (Cell Quest software, BD Biosciences) using 488 nm excitation laser and FL1-H channel 538 nm emission filter. In each analysis, 10,000 events were recorded after cell debris were electronically gated out. Results obtained were verified by repeating experiments N=3 independent experiments. Authentic hydrogen peroxide was used as a positive control.
# CEM cells [2] = experiment: Trypan blue cell viability assay, DEM-treated cells; type: cell-based, human; details: overnight incubation, then 5 mM DEM, 3 h
# Procedure: Cell viability determined by trypan blue exclusion assay: This technique was used to assess the cytoprotective effects of the invention compounds in cultured cells pharmacologically treated to induce cell death by GSH depletion. DEM was used to deplete cellular GSH and induce oxidative stress. The viability of DEM-treated CEM cells was determined by their ability to exclude the dye trypan blue. Viable cells exclude trypan blue; whereas, non-viable cells take up the dye and stain blue. Briefly, CEM cells were grown in RPMI 1640 medium (GIBCO, Grand island, N.Y., USA) supplemented with 10% fetal calf serum, 2 mM glutamine (HyClone, South Logan, Utah, USA), 1% penicillin-streptomycin mix (Cellgro, Manassan, Va., USA). Cells were seeded at a density of 1×10^6 cells/mL and treated with different concentrations of the invention compounds. Cells were incubated at 37° C. in a humidified atmosphere of 5% CO2 in air for three hours with 5 mM DEM. Cell viability was determined by staining cells with 0.4% trypan blue using a hemacytometer. At least 500 cells were counted for each experimental group. At the time of assay, >95% of DEM-treated cells were trypan blue positive; whereas, in non-DEM treated control cell cultures >95% cells were viable. Cell viability was expressed as the percentage of control. Data are expressed as means±S.E.M (n=3).
# CEM leukemia cells [3] = experiment: Mitochondrial membrane potential (Δψm) assay, TMRM, FACS; type: cell-based, human; details: pretreatment 0.5, 1 or 2.5 μM overnight, DEM
# Procedure: Measurement of Mitochondrial Membrane Potential (Δψm)(FACS). For the determination of Δψm, CEM leukemia cells were pre-treated with or without the test compounds. The cells were treated with 5 mM DEM for 120 minutes, collected by centrifugation at 300×g for 3 minutes and then washed twice with phosphate buffered saline. The cells were re-suspended in HSSB buffer and incubated at 37° C. in the dark for 15 minutes with 250 nM TMRM (a cationic dye which accumulates within mitochondria in accordance with the Δψm Nernst potential). Cells were collected by centrifugation at 300×g for 3 minutes and then washed twice with phosphate buffered saline. The samples were analyzed immediately by flow cytometry using 488 nm excitation laser and the FL2-H channel. The results obtained were verified in three independent experiments. The protonophore FCCP (30 μM) was used to dissipate the chemiosmotic proton gradient (ΔμH^+) and served as a control for loss of Δψm. In each analysis, 10,000 events were recorded.
# [4] = C11-BODIPY581/591 oxidation lipid peroxidation assay in liposomes; details: 10 mM AAPH, phospholipid liposomes, phosphate buffer, 40° C.
# Procedure: To overcome the problem of spectral overlap using cis-parinaric acid, a fluorescence assay for lipid peroxidation using a lipophilic probe belonging to the BODIPY class of fluorescent dyes was used. C11-BODIPY^581/591 (4,4-difluoro-5(4-phenyl-1,3-butadienyl)-4-bora-3a,4a-diaza-s-indacene-3-propionic acid) fluorescence shifts from red to green upon oxidation. C11-BODIPY^581/591 (Molecular Probes, Eugene, Oreg., USA) stock solution concentrations were determined by measuring the absorption of C11-BODIPY^581/591 at 582 nm using a molar extinction coefficient of 140,000 mol^−1 cm^−1(R. P. Haugland, (1999) Handbook of Fluorescent Probes and Research Chemicals, Molecular Probes, Inc., Eugene, Oreg.). The lipid peroxidation inducer 2,2′-Azobis (2-amidino-propane dihydrochloride) (AAPH) and the antioxidant compound α-tocopherol were obtained from Sigma (St. Louis, Mo., USA). Phospholipid bilayers were prepared from 1-stearoyl-2-oleoyl-phosphatidylcholine (SOPC) and 1,2-dilinoleoyl-phosphatidylcholine (DLPC) and were purchased from Avanti® polar lipids, INC (Alabaster, Ala., USA).
# Phosphotidylcholine (PC) liposomes were prepared as described before (Guey-Shuang et al. (1982) Lipids. 17, 403-413). Briefly, DLPC (25 mg) and SOPC (25 mg) were dissolved in chloroform and the solvent was removed by nitrogen evaporation (˜2 hours to give a thin film of PC in a round bottom flask. The lipid film was hydrated with 50 mL of 10 mM Tris-HCl (pH 7.4), 100 mM KCl, shaken and sonicated for 15 seconds. The liposomes obtained were filtered several times through 0.2 μM membrane filter.
# C11 BODIPY^581/591 was incorporated into liposomes and oxidized by peroxyl radicals derived from the decomposition of AAPH in presence and absence of the compounds. […] Liposomes were pre-incubated for 10 min with 200 nM C11 BODIPY^581/591 to allow their incorporation into the lipid phase of the liposomes. After the addition of AAPH (10 mM) the decay of red fluorescence was followed at λ exc=570 nm, λ em=600 nm. Relative fluorescence units were normalized to 100% intensity. Results obtained were verified by repeating experiments N=3 independent experiments.
# Human CEM leukemia cells = experiment: Live/Dead Viability/Cytotoxicity flow cytometry assay; type: cell-based; details: overnight incubation, then DEM 3 hours
# Procedure: Cell viability and cytotoxicity were determined by simultaneous staining live and dead cells using a two-color fluorescence assay, the Live/Dead® Viability/Cytotoxicity Kit (Molecular Probes). This assay is used to measure two recognized parameters of cell viability, intracellular esterase activity and plasma integrity. The membrane-impermeant DNA dye ethidium homodimer-1 (EthD-1) was used to identify dead cells whose plasma membrane integrity was disrupted. The membrane-permeant dye calcein-AM was used to label live cells. It penetrates into the cells where it is metabolized by cytoplasmic esterases and becomes a fluorescent but membrane-impermeant probe which is retained in viable cells. Human CEM leukemia cells were incubated overnight in RPMI medium (control) and in the presence of test compound and then treated with DEM for 3 hours. Cells were stained with 0.2 μM calcein-AM and 0.4 μM EthD-1. After 15 minutes, flow cytometry analysis was carried out using excitation at 488 nm. The green-fluorescent (539 nm) FL1-H channel, live-cell population appears in the lower right quadrant and the red-fluorescent (585 nm) FL2-H channel dead-cell population appears in the upper left quadrant (FIG. 11). In each analysis, 10,000 events were recorded. Results obtained were verified in three independent experiments.
# CEM leukemia cells [5] = experiment: C11-BODIPY581/591 oxidation in cell culture (lipid peroxidation); type: cell-based, human; details: 2.5 or 1 μM, pretreatment 4 or 24 hours, glutathione depleted
# Procedure: Lipid peroxidation in CEM leukemia cells was detected by utilizing the oxidant-sensitive lipophilic probe C11 BODIPY^581/591. Briefly, CEM cells (5×10^5 cell/mL) were treated with the test compounds at final concentrations of 1 and 2.5 μM, and incubated at 37° C. for 4 or 24 h in a humidified atmosphere containing 5% CO2 in air. Cells were treated with 500 nM C11 BODIPY^581/591 in phenol red-free RPMI-1640 media and incubated at 37° C. in the dark for 30 minutes. The cells were washed twice with phosphate buffered saline and oxidative stress was induced with 5 mM DEM in phenol red-free RPMI-1640 media for 90 minutes. Treated cells were collected by centrifugation at 300×g for 3 minutes and then washed twice with phosphate buffered saline. Cells were resuspended in 250 μL of phosphate buffered saline and were analyzed by FACS (FACS Calibur flow cytometer, Becton Dickinson) to monitor the change in intensity of the C11 BODIPY^581/591-green (oxidized) fluorescence signal.
smiles,measurement,setting,value
"COc1nc(N(C)C)nc(CCCCCCCCCCO)c1O [Compound D, 2-(dimethylamino)-4-(10-hydroxydecyl)-6-methoxypyrimidin-5-ol]",suppression of ROS production (DCF fluorescence),"CEM cells [1]; pretreatment 0.5, 1 or 5 μM, DEM",most effective compound in suppressing ROS; also recorded: very effective in suppressing ROS
same,maintaining cell viability (trypan blue exclusion),CEM cells [2],"quite effective in maintaining cell viability following DEM treatment, with D being the most effective; also recorded: superior to idebenone in maintaining the viability of DEM-treated cells"
same,maintaining mitochondrial membrane potential Δψm,CEM leukemia cells [3],the most effective in maintaining mitochondrial membrane potential; also recorded: very favorable properties
"COc1cc(C)c(O)c(CCCCCCCCCCO)n1 [Compound F, 2-(10-hydroxydecyl)-6-methoxy-4-methylpyridin-3-ol]",melting point,,80 to 81 °C
"CCCCCc1nc(N(C)C)nc(C)c1O [Compound H, 2-(dimethylamino)-4-methyl-6-pentylpyrimidin-5-ol]",melting point,,61 to 62 °C
"CCCCCCCCCCc1nc(N(C)C)nc(C)c1O [Compound I, 4-decyl-2-(dimethylamino)-6-methylpyrimidin-5-ol]",suppression of ROS (DCFH-DA),CEM cells [1],most effective compounds at suppressing ROS in this assay; also recorded: especially effective
same,melting point,,71 to 72 °C
"CCCCCCCCCCCCCCCCc1nc(N(C)C)nc(C)c1O [Compound J, 2-(dimethylamino)-4-hexadecyl-6-methylpyrimidin-5-ol]",suppression of ROS (DCFH-DA),CEM cells [1],most effective compounds at suppressing ROS in this assay; also recorded: especially effective
same,melting point,,86 to 87 °C
"Cc1nc(N)nc(CCCCCCCCCCO)c1O [Example 10, 2-amino-4-(10-hydroxydecyl)-6-methylpyrimidin-5-ol]",melting point,,103 to 104 °C
"Cc1nc(N(C)C)nc(C)c1O [compound 12, 2-N,N-dimethylamino-5-hydroxy-4,6-dimethylpyrimidine]",quenching of lipid peroxidation (retention of C11-BODIPY581/591 fluorescence),[4],less active than its counterpart compound A
"CC(=O)Oc1c(C)nc2c(c1CC[C@](C)(O)CCC[C@H](C)CCC[C@H](C)CCCC(C)C)CCN2C [compound 35, 4-((3R,7R,11R)-3-hydroxy-3,7,11,15-tetramethylhexadecyl)-1,6-dimethyl-2,3-dihydro-1H-pyrrolo[2,3-b]pyridine-5-yl acetate]",maintaining cell viability (trypan blue exclusion),CEM cells [2],"both effective in maintaining cell viability following treatment with DEM, with the acetate of compound C being somewhat more effective"
"Cc1nc2c(c(C)c1O)CCN2C [compound C redox core, 1,4,6-trimethyl-2,3-dihydro-1H-pyrrolo[2,3-b]pyridin-5-ol, reference compound]",quenching of lipid peroxidation (retention of C11-BODIPY581/591 fluorescence),"[4]; listed as 1,4,6-trimethyl-2,3-dihydro-1H-pyrrolo[2,3-b]pyridin-5-ol",much less effective in the same assay system
same,quenching of lipid peroxidation (retention of C11-BODIPY581/591 fluorescence),[4]; listed as Compound C redox core,less effective than compound C itself
same,protection against ROS production (DCF fluorescence),CEM cells [1],no protection
same,maintaining cell viability (trypan blue exclusion),CEM cells [2],quite ineffective
same,"maintaining cell viability (Live/Dead kit, flow cytometry)",Human CEM leukemia cells,quite ineffective
same,protection against lipid peroxidation in cells (C11-BODIPY581/591 green fluorescence),CEM leukemia cells [5],no protection
"Cc1c(C)c2c(c(C)c1O)CCC(C)(C(=O)O)O2 (stereo not shown) [trolox, reference compound]",protection against ROS production (DCF fluorescence),CEM cells [1],no protection
same,maintaining cell viability (trypan blue exclusion),CEM cells [2],quite ineffective
same,"maintaining cell viability (Live/Dead kit, flow cytometry)",Human CEM leukemia cells,quite ineffective
same,protection against lipid peroxidation in cells (C11-BODIPY581/591 green fluorescence),CEM leukemia cells [5],no protection
